Assays:
[1] = Displacement of radioligand [3H]- DPDPE on Opioid receptor delta 1 in monkey brain membranes
[2] = Displacement of radioligand [3H]- U-69,593 on Opioid receptor kappa 1 in monkey brain membranes range; Value ranges from (9.7-14.2)
[3] = Displacement of radioligand [3H]- DAMGO on Opioid receptor mu 1 in monkey brain membranes range; Value ranges from (0.32-0.91)
[4] = Displacement of radioligand [3H]- DPDPE on Opioid receptor delta 1 in monkey brain membranes range; Value ranges from (34.0-43.2)

SMILES | Ki [1] | Ki [2] | Ki [3] | Ki [4]
O=C(/C=C/c1ccc(Cl)cc1)N[C@@]12CCC(=O)[C@@H]3Oc4c(O)ccc5c4[C@@]31CCN(CC1CC1)[C@@H]2C5 [1N-[4-cyclopropylmethyl-10-hydroxy-14-oxo-(17S)-12-oxa-4-azapentacyclo[9.6.1.01,13.05,17.07,18]octadeca-7,9,11(18)-trien-17-yl]-3-(4-chlorophenyl)-(E)-2-propenamide(Clocinnamox (C-CAM))] | 1.6 nM |  |  | 
O=C(/C=C/c1ccc(Cl)cc1)NC12CCC(=O)C3Oc4cccc5c4[C@@]31CCN(CC1CC1)C2C5 (stereo partly drawn) [1N-[4-cyclopropylmethyl-14-oxo-(13R)-12-oxa-4-azapentacyclo[9.6.1.01,13.05,17.07,18]octadeca-7,9,11(18)-trien-17-yl]-3-(4-chlorophenyl)-(E)-2-propenamide] |  | 12 nM | 0.54 nM | 37 nM
COc1ccc2c3c1O[C@H]1C(=O)CC[C@@]4(NC(=O)/C=C/c5ccc(Cl)cc5)[C@@H](C2)N(CC2CC2)CC[C@]314 [1N-[4-cyclopropylmethyl-10-methoxy-14-oxo-(13R)-12-oxa-4-azapentacyclo[9.6.1.01,13.05,17.07,18]octadeca-7,9,11(18)-trien-17-yl]-3-(4-chlorophenyl)-(E)-2-propenamide] | 4.5 nM |  |  | 

Source: BindingDB's records for doi:10.1021/jm0009641 (University of Bristol, 2000)
